Experimental data reported in patent publication US11519014B2, “Specific substrate of an ALDH isoenzyme” (ADVANCED BIODESIGN, priority 2016, dated 2022).

What was measured:
ALDH1 [1] = assay: ALDH1 activity by resorufin propionate after treatment with inhibitors of ALDH 1 and 3 (HL-60 cells); type: cell-based; conditions: inhibitor 8 μM, 6 hours, substrate 10 μM, one hour, P<0.001, FIG. 3
Protocol: In a 96-well plate, the HL-60 cells were inoculated at a concentration of 50.000 cells/well in RPMI-1640 medium without phenol red supplemented with L-Glutamine, Penicillin, Streptomycin and 10% Fetal Calf Serum (FCS) supplemented with dimethyl ampalthiolester (DIMATE) a specific inhibitor ALDH 1 and 3, morpholino ampal thiolester (MATE) a specific inhibitor of ALDH3, at concentrations of 8 μM respectively. After incubation for 6 hours, the substrates of the different ALDHs respectively resorufine propionate for ALDH1 and resorufin 4-diethylaminobenzoate for ALDH3, were added to a final concentration of 10 μM and then incubated for one hour at +37° C. The plate was then read using an Appliskan fluorescent plate reader (ex=560 nm, Em=600). The data were expressed in relative fluorescence units produced by an equal number of cells.

ALDH1A1 [2] = target: T1, ALDH1A1 (Homo sapiens, UniProt P00352); assay: Double localization of resorufin propionate and ALDH1A1 by fluorescent microscopy (NCI-H522 cells); type: cell-based; conditions: results not shown
T1 construct: purchased R&D Systems 5869-DH
T1 sequence (P00352 1-501): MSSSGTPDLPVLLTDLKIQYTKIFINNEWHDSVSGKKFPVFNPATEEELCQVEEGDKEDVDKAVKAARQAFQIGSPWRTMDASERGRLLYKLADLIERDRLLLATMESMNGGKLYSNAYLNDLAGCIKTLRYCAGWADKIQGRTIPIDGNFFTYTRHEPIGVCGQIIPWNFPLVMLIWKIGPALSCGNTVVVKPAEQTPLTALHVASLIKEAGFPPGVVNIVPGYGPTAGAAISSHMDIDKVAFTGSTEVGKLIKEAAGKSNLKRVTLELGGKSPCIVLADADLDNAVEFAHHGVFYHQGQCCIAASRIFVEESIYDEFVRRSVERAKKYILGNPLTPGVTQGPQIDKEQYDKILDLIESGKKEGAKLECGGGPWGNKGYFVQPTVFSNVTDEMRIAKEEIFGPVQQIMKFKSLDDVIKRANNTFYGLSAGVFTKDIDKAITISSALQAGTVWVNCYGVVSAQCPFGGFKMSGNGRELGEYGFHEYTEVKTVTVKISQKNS
Protocol: In a 24-well plate with microscope glasses previously washed with ethanol and then placed in the wells, the NCI-H522 cells were added at a cell concentration of 50.000 cells/well and then incubated in RPMI-1640 medium supplemented with L-Glutamine, Penicillin, Streptomycin and 10% Fetal Calf Serum overnight at +37° C. with a 5% CO2 atmosphere. The next day, the culture medium was changed with either DIMATE (5 μM) or the treatment vehicle and incubated for 6 hours. The cells were incubated for 30 minutes with culture medium supplemented with 10 μM of resorufin propionate, were then washed with cold PBS and then fixed with paraformaldehyde for 15 minutes at 37° C. The cells were permeabilized and saturated with PBS; 3% bovine albumin; 0.3% triton for 1 hour. The incubation was carried out with the anti-ALDH1A1 antibody (R&D System, MAB5869) for 1 hour at +37° C., then with an anti-mouse antibody coupled to fluorescein for 1 hour at room temperature in the dark, with PBS washes between the two steps. 3 washes with PBS were carried out then the microscopy glasses were mounted with an anti-decoloration support supplemented with DAPI. The cells were then observed under a microscope.

ALDH1 [3] = assay: Identification of positive ALDH1 cells by flow cytometry via resorufin propionate; type: cell-based; conditions: 15 μM Dimate, 5 hours, FIG. 4
Protocol: In a 60 mm Petri dish, 500.000 cells were incubated with RPMI-1640 medium supplemented with L-Glutamine, Penicillin, Streptomycin and 10% Fetal Calf Serum overnight at +37° C. with 5% atmosphere. CO2. For the negative control, the cells were taken up in medium supplemented with 15 μM of dimethyl ampal thiolester (Dimate), a specific inhibitor of ALDH1 and 3, then incubated for 5 hours at 37° C., 5% CO2. After trypsination, the cells were taken up in supplemented RPMI medium and centrifuged at 800 g for 5 minutes. The cell pellet was then taken up in fresh supplemented medium containing 10 μM of resorufin propionate, and then incubated for 1 hour in a polycarbonate tube at 37° C., 5% CO2. After incubation, the cells were then centrifuged and then washed in cold PBSx1 and finally taken up in […] of cold PBSx1. The solution was then analyzed by flow cytometry ([…] or red laser).

ALDH1A1 [4] = target: T1, ALDH1A1; assay: Determination of the Km and Vmax of resorufine propionate with purified ALDH1A1; type: biochemical; conditions: column ALDH1; relative to ALDH1
Protocol: (§1) In 50 μl of 0.1 M phosphate buffer pH6.00; 0.2 M KCl; 2 mM NADP+; 2 mM EDTA, a range of resorufine propionate was made: 250, 200, 150, 125, 100, 90, 80 and 70 μM and 0 μM. 50 μL of recombinant enzyme solution at 2.5 mU/well ALDH1A1 (R&D Sytems, 5869-DH), ALDH2 (abcam, ab87415) and ALDH3A1 (R&D Sytems, 6705-DH) was added. The incubation was carried out for 30 minutes at +37° C. and then the fluorescence reading was made (Em: 590 nm, Ex: 530 nm). The data were then converted to resorufin released (nM·min-1.μg^−1) and Km and Vmax were calculated using the Michaelis-Menten equation using GraphPad Prism 5.0.

ALDH2 = target: T2, ALDH2 (Homo sapiens, UniProt P05091); assay: Determination of the Km and Vmax of resorufine propionate with purified ALDH2; type: biochemical; conditions: column ALDH2; relative to ALDH1
T2 construct: purchased abcam ab87415
T2 sequence (P05091 18-517): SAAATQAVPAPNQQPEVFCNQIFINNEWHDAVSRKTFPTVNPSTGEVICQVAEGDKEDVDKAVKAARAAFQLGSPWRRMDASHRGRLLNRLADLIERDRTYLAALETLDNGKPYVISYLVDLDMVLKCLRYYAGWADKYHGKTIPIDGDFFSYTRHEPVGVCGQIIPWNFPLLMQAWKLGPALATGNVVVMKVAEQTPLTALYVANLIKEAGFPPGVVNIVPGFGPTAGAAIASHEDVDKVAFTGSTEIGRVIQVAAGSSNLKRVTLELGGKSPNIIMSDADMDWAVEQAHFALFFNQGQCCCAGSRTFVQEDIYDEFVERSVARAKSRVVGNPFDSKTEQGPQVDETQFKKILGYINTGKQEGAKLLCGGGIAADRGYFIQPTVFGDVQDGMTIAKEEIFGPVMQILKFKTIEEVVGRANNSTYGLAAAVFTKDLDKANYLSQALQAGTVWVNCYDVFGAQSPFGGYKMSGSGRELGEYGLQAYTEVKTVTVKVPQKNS
Protocol: as §1

ALDH3A1 = target: T3, ALDH3A1 (Homo sapiens, UniProt P30838); assay: Determination of the Km and Vmax of resorufine propionate with purified ALDH3A1; type: biochemical; conditions: column ALDH3
T3 construct: purchased R&D Systems 6705-DH
T3 sequence (P30838 1-453): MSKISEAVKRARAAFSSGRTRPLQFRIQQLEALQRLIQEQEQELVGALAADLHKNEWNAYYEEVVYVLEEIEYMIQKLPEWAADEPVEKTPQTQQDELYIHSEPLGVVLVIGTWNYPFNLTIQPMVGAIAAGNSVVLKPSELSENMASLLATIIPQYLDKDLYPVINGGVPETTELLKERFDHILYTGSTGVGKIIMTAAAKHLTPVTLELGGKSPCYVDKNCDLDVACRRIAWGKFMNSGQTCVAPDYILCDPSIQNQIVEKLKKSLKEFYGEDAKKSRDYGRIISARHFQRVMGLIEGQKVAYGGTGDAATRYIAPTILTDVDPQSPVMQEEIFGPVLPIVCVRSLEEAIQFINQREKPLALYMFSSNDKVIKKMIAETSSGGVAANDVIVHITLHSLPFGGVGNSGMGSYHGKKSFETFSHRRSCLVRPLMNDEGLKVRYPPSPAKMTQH
Protocol: as §1

ALDH1A1 [5] = target: T1, ALDH1A1; assay: ALDH1 activity by resorufine propionate after treatment with interfering RNA ALDH1A1 (NCI-H522 cells); type: cell-based; conditions: 100 nM of siRNA, 10 μM resorufin propionate, P<0.05, FIG. 2
Protocol: In a 60 mm Petri dish, the NCI-H522 cells were seeded at a concentration of 250.000 cells/plate, corresponding to a confluence of 40-50%, in RPMI-1640 medium supplemented with L-Glutamine, Penicillin, Streptomycin and 10% Fetal Calf Serum (FCS) overnight at 37° C. The next day, the medium was replaced by the same medium without FCS. The transfection solution was then prepared by diluting 100 nM in 500 μL of culture medium without FCS, to which 500 μL of culture medium without FCS supplemented with 3 μL of lipofectamine 2000 (Invitrogen) was added. The solution was then incubated for 30 minutes at room temperature and then drops added to the cell solution. The mixture was incubated at +37° C. in a 5% CO2 incubator for 8 hours. […] The specific activity of ALDH1A1 was then assayed by fluorescence.
The cells were inoculated at a concentration of 1×10^4 cells/well in a 96-well plate in 100 μl in RPMI-1640 medium without phenol red supplemented with L-Glutamine, Penicillin, Streptomycin and 10% Fetal Calf Serum (FCS) supplemented with 10 μM resorufin propionate. The cells were then incubated for 1 hour and then the plate was read using an Appliskan fluorescent plate reader (ex=560 nm, Em=600). The data were expressed in relative fluorescence units produced by an equal number of cells.

[6] = substrate: CCC(=O)Oc1ccc2nc3ccc(=O)cc-3oc2c1; assay: Determination of the Km and Vmax of resorufine propionate with purified ALDH2; type: biochemical; conditions: other: column ALDH2; substrate range 70-250 μM; pH 6.0; 37.0 °C
Protocol: as §1

[7] = substrate: CCC(=O)Oc1ccc2nc3ccc(=O)cc-3oc2c1; assay: Determination of the Km and Vmax of resorufine propionate with purified ALDH1A1; type: biochemical; conditions: other: column ALDH1; substrate range 70-250 μM; pH 6.0; 37.0 °C
Protocol: as §1

CSC(=O)C#CC(C)(C)N(C)C [DIMATE, dimethyl ampalthiolester]
inhibition of fluorescence (resorufin propionate signal) (ALDH1 [1]): significant inhibition of fluorescence
conversion of resorufin propionate to resorufin, fluorescent microscopy (ALDH1A1 [2]; DIMATE 5 μM, 6 hours): inhibited
positive ALDH1 cells (living cells), flow cytometry (ALDH1 [3]; 10 μM resorufin propionate): positive ALDH1 cell inhibition is observed
viability (ALDH1 [3]; Calcein-AM): decrease in viability

CCCCCC(=O)Oc1ccc2c(c1)Oc1cc(OC(=O)CCCCC)ccc1C21OC(=O)c2ccccc21 [Fluorescein di-hexanoate]
melting point: 103 to 105 °C

CC1=C(/C=C/C(C)=C/C=C/C(C)=C/C(=O)Oc2ccc3c(c2)Oc2cc(OC(=O)/C=C(C)/C=C/C=C(C)/C=C/C4=C(C)CCCC4(C)C)ccc2C32OC(=O)c3ccccc32)C(C)(C)CCC1 (centres unmarked) [Fluorescein di-retinoate]
melting point: 145 to 150 °C (dec.)

CCCCCCCC(=O)Oc1ccc2c(c1)Oc1cc(OC(=O)CCCCCCC)ccc1C21OC(=O)c2ccccc21 [Fluorescein octanoate, Fluorescein dioctanoate]
melting point: 50 to 52 °C

CCC(=O)Oc1ccc2nc3ccc(=O)cc-3oc2c1 [resorufine propionate, Resorufine propionate]
Increase (ALDH1A1 [4]): 1
Increase (ALDH2): 0.54
Increase (ALDH3A1; relative to ALDH1): 0.17
Km (ALDH3A1; substrate range 70-250 μM): 445 µM
signal resorufine propionate after ALDH1A1 siRNA (ALDH1A1 [5]): decrease significant
colocalization of fluorescent signal with ALDH1A1 (ALDH1A1 [2]; 10 μM resorufin propionate, 30 minutes): can be colocalized with ALDH1A1

B1: ALDH2 (Homo sapiens) (protein)
chain: T2 sequence (P05091 18-517)
notes: purchased abcam ab87415
Km [6]: 116 µM
Vmax [6]: 6693 nM/min/µg

B2: ALDH1A1 (Homo sapiens) (protein)
chain: T1 sequence (P00352 1-501)
notes: purchased R&D Systems 5869-DH
Km [7]: 115 µM
Vmax [7]: 12132 nM/min/µg
